We go through twelve compounds from US8466089B2, “Pyrazole compounds, process for their production and herbicides containing them” (Ishihara Sangyo Kaisha, Ltd., priority 2008, dated 2013).

What all share (assay type): in vivo
The subject of test [1] is barnyardgrass (Echinochloa oryzicola vasing.). Briefly: Test Example 3, paddy field pot, application to irrigated water. Conditions: applied at 0.5 leaf stage, 13th to 17th day after application, read-out: Growth inhibition rate (%) barnyard grass. From the text: (§1) Paddy field soil was put into a 1/1,000,000 hectare pot, and seeds of barnyardgrass (Echinochloa oryzicola vasing.) and Japanese bulrush (Scirpus juncoides) were sown and lightly covered with soil. Then, pot was left to stand in a greenhouse in a state irrigated to a water depth of from 0.5 to 1 cm, and next day or two days later, tubers of Japanese ribbon waparo (Sagittaria pygmaea) were planted. Then, the irrigated water depth was maintained to be from 3 to 4 cm, and when barnyardgrass and Japanese bulrush reached 0.5 leaf stage, and Japanese ribbon waparo reached primary leaf stage, a water diluted solution of a wettable powder or an emulsifiable concentrate of the compound of the present invention prepared in accordance with a conventional preparation method, was uniformly dropwise applied by a pipette so that the amount of active ingredients would be a prescribed amount. Further, paddy field soil was put into a 1/1,000,000 pot, followed by soil puddling to an irrigated water depth of from 3 to 4 cm. Next day, rice (Oryza sativa L.) (var.: Nihonbare) of two leaf stage was transplanted in a transplantation depth of 3 cm. On the 4th day after transplantation, the compound of the present invention was applied in the same manner as described above.
(§2) On the 13th to 17th day after application, the state of growth of barnyardgrass, Japanese bulrush and Japanese ribbon waparo was visually observed, and on the 20th to 23rd day after application, the state of growth of rice was visually observed, and the herbicidal effect was evaluated by a growth inhibition rate (%) of 0 (equivalent to the non-treated area) to 100% (complete kill).

The test system of test [2] is Japanese bulrush (Scirpus juncoides). The test is described as above. Conditions: Schoenoplectiella juncoides, applied at 0.5 leaf stage, 13th to 17th day after application, read-out: Growth inhibition rate (%) Japanese bulrush.
Description: as §1, §2

In test [3] the test system is Japanese ribbon waparo (Sagittaria pygmaea). Described as above. Conditions: applied at primary leaf stage, 13th to 17th day after application, read-out: Growth inhibition rate (%) Japanese ribbon waparo.
Description: as §1, §2

The subject of test [4] is rice (Oryza sativa L.) (var.: Nihonbare). As to the kind of experiment: Test Example 3, paddy field pot, transplanted rice. Conditions: applied 4th day after transplantation, 20th to 23rd day after application, read-out: Growth inhibition rate (%) Rice.
Description: as §1, §2

In test [5] the test system is soybean (Glycine max Merr.). Briefly: Test Example 1, foliar treatment in upland pots. Conditions: 20th to 22nd day after application, visual, read-out: Growth inhibition rate (%) Soybean. In short, it runs like this:
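Sow seeds in upland field soil; grow to set leaf stage (soybean primary leaf–0.3, corn 2.0–3.3, green foxtail 1.5–3.0, rice 1.2–2.5); spray foliage with formulation diluted to 500 L/ha water containing 0.1 vol% spreader at prescribed a.i. rate; score inhibition % at days 20–22.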

Another test has as its system wheat (Triticum spp.). As to the kind of experiment: Test Example 1, foliar treatment in upland pots. Conditions: 20th to 22nd day after application, visual, read-out: Growth inhibition rate (%) Wheat.
For test [6], the system named is prickly sida (Sida spinosa L.). Briefly: Test Example 1, foliar treatment in upland pots. Conditions: 20th to 22nd day after application, visual, read-out: Growth inhibition rate (%) Prickly sida.
In test [7] the test system is velvetleaf (Abutilon theophrasti MEDIC.), guineagrass (Panicum maximum Jacq.), green foxtail (Setaria viridis L.). Briefly: Test Example 4, foliar treatment, herbicidal effect versus Reference Compounds. Conditions: 3.5 to 15 g/ha, 14th to 28th day after application, test written in present tense. The text has this:
Upland field soil is put into a 1/1,000,000 hectare pot, and seeds of various plants are sown. When the respective plants reach predetermined leaf stage ((1) velvetleaf (Abutilon theophrasti MEDIC.), (2) guineagrass (Panicum maximum Jacq.), (3) green foxtail (Setaria viridis L.), and (4) corn (Zea mays L.), a wettable powder of compound No. 2-1 of the above-mentioned present invention, an emulsifiable concentrate of the following Reference Compound 1 and a wettable powder of the following Reference Compound 2, prepared in accordance with a conventional preparation method, are weighed so that the active ingredients become the prescribed amounts 3.5 to 15 g/ha, and diluted with water in an amount corresponding to 300 liter per 1 hectare (containing 0.5 vol % of an agricultural spreader (MSO concentrate, manufactured by Cognis Corporation). The spray solutions thus prepared are applied for foliar treatment by a small sprayer.

For the compound `COCCOc1c(S(C)(=O)=O)ccc(C(=O)c2cnn(C(C)C)c2O)c1C` [Compound No. 8-1, (5-Hydroxy-1-isopropyl-1H-pyrazol-4-yl)(3-(2-methoxyethoxy)-2-methyl-4-(methylsulfonyl)phenyl)ketone], the inhibition (in general, how much of the control response was suppressed) at 63 g/ha in test [1] came to 95%; in test [2], 95%; in test [3], 95%; in test [4], 60%. The values for the inhibition at 7 g/ha (in test [5]; with wheat (Triticum spp.); in test [6]) were 40%, 0% and 30%, respectively.

As to `CCCn1ncc(C(=O)c2ccc(S(C)(=O)=O)c(OCCOC)c2C)c1O` [Compound No. 7-1, (5-Hydroxy-1-n-propyl-1H-pyrazol-4-yl)(3-(2-methoxyethoxy)-2-methyl-4-(methylsulfonyl)phenyl)ketone], the inhibition at 63 g/ha came out at 30% in test [1], 70% in test [2], 90% in test [3] and 20% in test [4]. Also, the inhibition at 7 g/ha in test [5] was determined as 60%; in the test on wheat (Triticum spp.) it was 0%; in test [6], 20%.

For the compound `CCOC(=O)OC(C)Oc1c(C(=O)c2ccc(S(C)(=O)=O)c(OCCOC(C)C)c2C)cnn1C` (stereo not drawn) [Compound No. 1-5, Ethyl 1-(4-(3-(2-isopropoxyethoxy)-2-methyl-4-(methylsulfonyl)benzoyl)-1-methyl-1H-pyrazol-5-yloxy)ethyl carbonate], the inhibition at 63 g/ha is 100% in test [1], 20% in test [2], 90% in test [3] and 30% in test [4]. Moreover, the inhibition at 7 g/ha (in the test on wheat (Triticum spp.); in test [6]) was 0% in each case.

In the case of `COCCOc1c(S(C)(=O)=O)ccc(C(=O)c2c(C)nn(C)c2O)c1C` [Compound No. 5-2, (5-Hydroxy-1,3-dimethyl-1H-pyrazol-4-yl)(3-(2-methoxyethoxy)-2-methyl-4-(methylsulfonyl)phenyl)ketone], the inhibition at 63 g/ha in test [1] was 80%; in test [2], 70%; in test [3] it was 80%; in test [4] it was 20%. Further, the inhibition at 7 g/ha in test [5] turned out to be 70%; in test [6], 40%.

Regarding `CCc1nn(C)c(O)c1C(=O)c1ccc(S(C)(=O)=O)c(OCCOC)c1C` [Compound No. 5-3, (5-Hydroxy-1-methyl-3-ethyl-1H-pyrazol-4-yl)(3-(2-methoxyethoxy)-2-methyl-4-(methylsulfonyl)phenyl)ketone], the inhibition at 63 g/ha in test [1] is 60%; in test [2], 50%; in test [3], 50%; in test [4] it was 20%. Besides, the inhibition at 7 g/ha in test [5] amounted to 0%; in test [6], 30%.

Take `CCCn1ncc(C(=O)c2ccc(S(C)(=O)=O)c(OCCOC)c2C)c1OC(C)OC(=O)OCC` (stereo not drawn) [Compound No. 3-1, Ethyl 1-(1-n-propyl-4-(3-(2-methoxyethoxy)-2-methyl-4-(methylsulfonyl)benzoyl)-1H-pyrazol-5-yloxy)ethyl carbonate]: the inhibition at 63 g/ha in test [1] was determined as 100%; in test [2] it was 90%; in test [3], 95%; in test [4], 30%. Also, the inhibition at 7 g/ha (in the test on wheat (Triticum spp.); in test [6]) was 0% in each case.

On to `CCn1nc(C)c(C(=O)c2ccc(S(C)(=O)=O)c(OCCOC)c2C)c1O` [Compound No. 6-1, (1-Ethyl-5-hydroxy-3-methyl-1H-pyrazol-4-yl)(3-(2-methoxyethoxy)-2-methyl-4-(methylsulfonyl)phenyl)ketone], for which the inhibition at 63 g/ha was determined as 60% in test [1], 80% in test [2], 60% in test [3] and 40% in test [4]. Further, the inhibition at 7 g/ha (in the test on wheat (Triticum spp.); in test [6]) was 0% each time.

`COCCOc1c(S(C)(=O)=O)ccc(C(=O)c2c(C)nn(C)c2OC(C)OC(=O)OC)c1C` (stereo not drawn) [Compound No. 1-6, 1-(4-(3-(2-Methoxyethoxy)-2-methyl-4-(methylsulfonyl)benzoyl)-1,3-dimethyl-1H-pyrazol-5-yloxy)ethyl methyl carbonate]: the inhibition at 63 g/ha in test [1] was 100%; in test [2], 70%; in test [3], 60%; in test [4], 30%. The inhibition at 7 g/ha worked out at 80% in test [5], 0% in the test on wheat (Triticum spp.) and 70% in test [6].

Regarding `COC(=O)OC(C)Oc1c(C(=O)c2ccc(S(C)(=O)=O)c(C(=O)OC)c2C)cnn1C` (stereo not drawn) [Compound No. 1-2, Methyl 3-(5-(1-(methoxycarbonyloxy)ethoxy)-1-methyl-1H-pyrazole-4-carbonyl)-2-methyl-6-(methylsulfonyl)benzoate], the inhibition at 63 g/ha in test [1] is 100%; in test [2], 70%; in test [3], 95%; in test [4], 40%. Further, the inhibition at 7 g/ha in test [5] came out at 95%; in the test on wheat (Triticum spp.) it was 0%.

As for `CCn1ncc(C(=O)c2ccc(S(C)(=O)=O)c(OCCOC)c2C)c1OC(C)OC(=O)OC` (stereo not drawn) [Compound No. 2-1, 1-(1-Ethyl-4-(3-(2-methoxyethoxy)-2-methyl-4-(methylsulfonyl)benzoyl)-1H-pyrazol-5-yloxy)ethyl methyl carbonate], the inhibition at 63 g/ha in test [1] came out at 100%; in test [2] it was 80%; in test [3] it was 80%; in test [4], 20%. For the same compound, the inhibition at 7 g/ha came to 95% in test [5], 0% in the test on wheat (Triticum spp.) and 60% in test [6]. For the same compound, in test [7], the “herbicidal effect as compared to Reference Compounds” value is “superior herbicidal effects”.

`COCCOc1c(S(C)(=O)=O)ccc(C(=O)c2cnn(C(C)C)c2OC(C)OC(=O)OC)c1C` (stereo not drawn) [Compound No. 4-1, 1-(1-Isopropyl-4-(3-(2-methoxyethoxy)-2-methyl-4-(methylsulfonyl)benzoyl)-1H-pyrazol-5-yloxy)ethyl methyl carbonate]: the inhibition at 63 g/ha in test [1] was determined as 100%; in test [2] it was 98%; in test [3], 70%; in test [4], 40%. The inhibition at 7 g/ha in test [5] was 95%; in the test on wheat (Triticum spp.), 0%; in test [6] it was 60%.

For `Cc1c(C(=O)c2cnn(C)c2O)ccc(S(C)(=O)=O)c1OCCC(C)C` [Compound No. 5-1, (5-Hydroxy-1-methyl-1H-pyrazol-4-yl)(3-(2-isopropylethoxy)-2-methyl-4-(methylsulfonyl)phenyl)ketone], the inhibition at 63 g/ha was found to be 60% in test [1], 20% in test [2], 95% in test [3] and 30% in test [4]. For the same compound, the inhibition at 7 g/ha with wheat (Triticum spp.) stood at 0%; in test [6], 40%.
